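Following 48 hours of exposure in 96-well plates, responses at five concentrations were used to interpolate endpoints linearly. At the GI50, growth is halved. TGI: total growth inhibition.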
How the values were obtained:
Experiment in all cases: inhibition of tumour cell growth, NCI panel, 48 h
[1] = system: SNB-19 CNS
[2] = system: T-47D breast
[3] = system: HCC-2998 colon
[4] = system: NCI-H460 lung
[5] = system: HOP-92 NSCLC
[6] = system: NCI-H226 lung
[7] = system: CAKI-1 renal
[8] = system: NCI-H23 lung
[9] = system: SF-295 CNS
[10] = system: A549 NSCLC
[11] = system: LOX IMVI melanoma
[12] = system: TK-10 renal
[13] = system: NCI/ADR-RES ovarian
[14] = system: RPMI-8226 leukemia
[15] = system: SK-MEL-2 melanoma
[16] = system: A498 renal
[17] = system: MCF7 breast
[18] = system: SR leukemia
[19] = system: SN12C renal
[20] = system: MDA-MB-435
[21] = system: KM12 colon
[22] = system: U251 CNS
[23] = system: HL-60(TB) leukemia
[24] = system: ACHN renal
[25] = system: HOP-62 NSCLC
[26] = system: DU-145 prostate
[27] = system: M14 melanoma
[28] = system: COLO 205 colon
[29] = system: PC-3 prostate
[30] = system: NCI-H522 lung
[31] = system: SF-268 CNS
[32] = system: MALME-3M melanoma
[33] = system: UO-31 renal
[34] = system: K-562 leukemia
[35] = system: SF-539 CNS
[36] = system: SK-MEL-5 melanoma
[37] = system: CCRF-CEM leukemia
[38] = system: UACC-257 melanoma
[39] = system: HS 578T breast
[40] = system: SK-MEL-28 melanoma
[41] = system: SNB-75 CNS
[42] = system: HCT-116 colon
[43] = system: EKVX NSCLC
[44] = system: MDA-MB-231 breast
[45] = system: OVCAR-4 ovarian
[46] = system: SK-OV-3 ovarian
[47] = system: SW-620 colon
[48] = system: UACC-62 melanoma
[49] = system: HCT-15 colon
[50] = system: OVCAR-5 ovarian
[51] = system: RXF 393 renal
[52] = system: HT29 colon
[53] = system: BT-549 breast
[54] = system: IGROV1 ovarian
[55] = system: MOLT-4 leukemia
[56] = system: 786-0 renal
[57] = system: OVCAR-8 ovarian
[58] = system: OVCAR-3 ovarian

O=C(Nc1cccc(-n2ccc3c(NC(=O)c4ccccc4)nccc32)c1)Nc1ccc(Cl)c(C(F)(F)F)c1 was tested, and the GI50 [1] was 494 nM, the TGI [1] was > 100000 nM and the GI50 [2] was 2880 nM. For the same molecule, the TGI [2] was > 100000 nM, the GI50 [3] was 413 nM and the TGI [3] was 15200 nM. For the same molecule, the GI50 [4] was 337 nM, the TGI [4] was 18300 nM and the GI50 [5] was 860 nM. The TGI [5] was 5740 nM, the GI50 [6] was 865 nM and the TGI [6] was > 28500 nM. It also gave a GI50 [7] of 718 nM, a TGI [7] of 9380 nM and a GI50 [8] of 593 nM. The TGI [8] was 5210 nM, the GI50 [9] was 294 nM and the TGI [9] was 1340 nM. The GI50 [10] was 485 nM, the TGI [10] was > 100000 nM and the GI50 [11] was 649 nM. It also gave a TGI [11] of 31600 nM, a GI50 [12] of 1190 nM and a TGI [12] of 14600 nM. For the same molecule, the GI50 [13] was 252 nM, the TGI [13] was 667 nM and the GI50 [14] was 424 nM. For the same molecule, the TGI [14] was 7020 nM, the GI50 [15] was 358 nM and the TGI [15] was 2620 nM. It also gave a GI50 [16] of 210 nM, a TGI [16] of 1350 nM and a GI50 [17] of 373 nM. For the same molecule, the TGI [17] was > 30700 nM, the GI50 [18] was 367 nM and the TGI [18] was > 23300 nM. For the same molecule, the GI50 [19] was 820 nM, the TGI [19] was > 100000 nM and the GI50 [20] was 227 nM. The TGI [20] was 605 nM, the GI50 [21] was 343 nM and the TGI [21] was 2680 nM. The GI50 [22] was 495 nM, the TGI [22] was 17700 nM and the GI50 [23] was 332 nM. The GI50 [24] was 670 nM, the TGI [24] was 8480 nM and the GI50 [25] was 736 nM. The TGI [25] was > 44600 nM, the GI50 [26] was 338 nM and the TGI [26] was 2280 nM. For the same molecule, the GI50 [27] was 315 nM, the TGI [27] was 1260 nM and the GI50 [28] was 273 nM. The TGI [28] was 737 nM, the GI50 [29] was 432 nM and the TGI [29] was > 36100 nM. It also gave a GI50 [30] of 211 nM, a TGI [30] of 642 nM and a GI50 [31] of 696 nM. For the same molecule, the TGI [31] was > 40000 nM, the GI50 [32] was 1070 nM and the TGI [32] was 47500 nM. The GI50 [33] was 1350 nM, the TGI [33] was > 100000 nM and the GI50 [34] was 386 nM. The TGI [34] was > 100000 nM, the GI50 [35] was 308 nM and the TGI [35] was 3980 nM. For the same molecule, the GI50 [36] was 317 nM, the TGI [36] was 1480 nM and the GI50 [37] was 332 nM. For the same molecule, the TGI [37] was > 100000 nM, the GI50 [38] was 1870 nM and the TGI [38] was 20900 nM. The GI50 [39] was 283 nM, the TGI [39] was 3250 nM and the GI50 [40] was 651 nM. For the same molecule, the TGI [40] was > 92000 nM, the GI50 [41] was 240 nM and the TGI [41] was 769 nM. It also gave a GI50 [42] of 372 nM, a TGI [42] of 13700 nM and a GI50 [43] of 633 nM. The TGI [43] was > 100000 nM, the GI50 [44] was 420 nM and the TGI [44] was 14200 nM. The GI50 [45] was 971 nM, the TGI [45] was > 100000 nM and the GI50 [46] was 346 nM. The TGI [46] was 20600 nM, the GI50 [47] was 395 nM and the TGI [47] was > 100000 nM. It also gave a GI50 [48] of 490 nM, a TGI [48] of 20000 nM and a GI50 [49] of 339 nM. For the same molecule, the TGI [49] was 14500 nM, the GI50 [50] was 482 nM and the TGI [50] was > 100000 nM. The GI50 [51] was 224 nM, the TGI [51] was 693 nM and the GI50 [52] was 327 nM. For the same molecule, the TGI [52] was 1400 nM, the GI50 [53] was 697 nM and the TGI [53] was 10400 nM. The GI50 [54] was 662 nM, the TGI [54] was > 100000 nM and the GI50 [55] was 885 nM. The TGI [55] was > 100000 nM, the GI50 [56] was 589 nM and the TGI [56] was > 100000 nM. For the same molecule, the GI50 [57] was 431 nM, the TGI [57] was > 39600 nM and the GI50 [58] was 240 nM. It also gave a TGI [58] of 554 nM.
